The results in this text go back to publication PMC6695598, “The Development of Tetrazole Derivatives as Protein Arginine Methyltransferase I (PRMT I) Inhibitors” (International Journal of Molecular Sciences, 2019).

The melting point is the temperature, or range, at which the solid turns liquid. The term inhibition denotes the drop in the measured response relative to a control, in per cent. The IC50 is the concentration that inhibits the measured activity by half.

Structures can show the parent of a compound that is named as a salt.

Data set [1] addresses PRMT1 (Homo sapiens, UniProt Q99873). Nature of the data set: radioactive PRMT1 methylation inhibition assay ([3H]-SAM, biotinylated histone H4 peptide). The following applies: for inhibition at 10 µM / % Inhibition of PRMT1 (at 10 μM): 10 μM compound, initial screening. It counts as biochemical. The procedure:
A series of 1,5-substituded tetrazole derivatives were synthesized to investigate the structure-activity relationship (SAR) of PRMT1 inhibitors (Table 1). […] The chemical modification of these compounds is mainly focused on the substituted benzene ring. The initial screening of these compounds was carried out using the radioactive PRMT1 methylation inhibition assay, which measured the amount of methyl groups that transferred from [^3H]-SAM to a biotinylated histone H4 peptide (ac- […](Biotin)). […] In the second step, the Group II compounds were designed and synthesized by extending the ethylenediamine side chain to propylenediamine.
(§1) The enzyme inhibitory activities were measured by the radioisotope assay in ShangHai Chempartner Co. Ltd. according to the standard protocol. The similar procedure was recently performed in the publication The radioactive methylation assay was performed in 1× assay buffer (modified Tris buffer) system containing enzyme (PRMT1/5), peptide and [^3H]-SAM solution and compounds on the assay plate. […] Afterwards, the reaction was stopped with addition of 5 μL cold SAM solution to per well. Then, 25 μL of volume per well was transferred to Flashplate from assay plate and incubated for 1 h minimum at room temperature. Finally, the Flashplate was washed with dH2O and 0.1% Tween-20 three times and then reading plate in Mi crobeta using program ^3H-Flashplate. The data was analyzed in GraphPad Prism 5 to obtain IC50 values.

In data set [2] the target is PRMT5 (Homo sapiens, UniProt O14744). Kind of data set: radioactive methylation assay, PRMT5 selectivity. It counts as biochemical. The procedure: as §1
Chain of PRMT5 (O14744 whole entry, species assumed): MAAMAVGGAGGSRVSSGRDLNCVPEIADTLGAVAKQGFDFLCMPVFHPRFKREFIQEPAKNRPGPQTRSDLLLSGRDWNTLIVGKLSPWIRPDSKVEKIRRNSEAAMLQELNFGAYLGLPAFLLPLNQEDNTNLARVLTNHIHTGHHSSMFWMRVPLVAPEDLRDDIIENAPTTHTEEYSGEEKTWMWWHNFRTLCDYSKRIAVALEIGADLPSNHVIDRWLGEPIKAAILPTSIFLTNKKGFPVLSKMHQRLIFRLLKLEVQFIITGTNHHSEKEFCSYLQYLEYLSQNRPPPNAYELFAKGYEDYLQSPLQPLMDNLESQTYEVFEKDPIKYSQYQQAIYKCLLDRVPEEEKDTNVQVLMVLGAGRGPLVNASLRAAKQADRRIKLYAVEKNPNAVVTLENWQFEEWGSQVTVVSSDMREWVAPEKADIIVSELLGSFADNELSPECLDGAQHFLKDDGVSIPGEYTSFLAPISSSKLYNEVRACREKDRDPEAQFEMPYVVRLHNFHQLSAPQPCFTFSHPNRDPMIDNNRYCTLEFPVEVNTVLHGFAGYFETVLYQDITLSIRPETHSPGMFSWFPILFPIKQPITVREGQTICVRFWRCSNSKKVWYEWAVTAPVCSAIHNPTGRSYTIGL
Chain of PRMT5 (Q9BQA1 whole entry partner, species assumed): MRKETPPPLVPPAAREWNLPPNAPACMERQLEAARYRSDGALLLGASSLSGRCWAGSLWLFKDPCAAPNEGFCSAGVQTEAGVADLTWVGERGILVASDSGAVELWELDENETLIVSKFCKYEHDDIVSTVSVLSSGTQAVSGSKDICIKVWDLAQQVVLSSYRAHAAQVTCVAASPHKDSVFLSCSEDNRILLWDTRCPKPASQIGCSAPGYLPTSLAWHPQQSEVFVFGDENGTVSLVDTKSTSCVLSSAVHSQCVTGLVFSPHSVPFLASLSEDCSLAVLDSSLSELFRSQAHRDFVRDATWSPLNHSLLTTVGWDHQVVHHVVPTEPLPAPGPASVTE

Chain of PRMT1 (Q99873 whole entry): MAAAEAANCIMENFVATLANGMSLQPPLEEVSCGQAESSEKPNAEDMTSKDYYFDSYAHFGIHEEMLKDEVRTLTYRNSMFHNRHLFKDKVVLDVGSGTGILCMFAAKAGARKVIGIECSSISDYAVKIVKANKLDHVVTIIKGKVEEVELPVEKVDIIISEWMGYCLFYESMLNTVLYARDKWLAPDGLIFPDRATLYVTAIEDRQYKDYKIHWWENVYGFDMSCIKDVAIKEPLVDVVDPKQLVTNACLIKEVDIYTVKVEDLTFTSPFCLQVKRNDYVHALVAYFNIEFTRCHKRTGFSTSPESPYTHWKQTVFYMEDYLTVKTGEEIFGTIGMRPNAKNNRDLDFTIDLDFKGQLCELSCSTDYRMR

For the compound `CNCCN(C)Cc1nnnn1-c1cccc(OC)c1.Cl` [9d, N,N’-Dimethyl-N’-(1-(3-methoxyphenyl)-1H-tetrazol-5-yl-methyl)ethylenediamine hydrochloride], the melting point is 185.6 to 186.4 °C. For the same compound, the inhibition at 10 µM in data set [1] came out at 7%.

For `CNCCN(C)Cc1nnnn1-c1ccc(OC)cc1.Cl` [9c, N,N’-Dimethyl-N’-(1-(4-methoxyphenyl)-1H-tetrazol-5-yl-methyl)ethylenediamine hydrochloride], the melting point lay within 163.2 to 163.6 °C. Besides, in data set [1], the inhibition at 10 µM came to 3%.

For the compound “N,N’-Dimethyl-N’-(1-(3-methylsulfonylphenyl)-1H-tetrazol-5-yl-methyl)-1,3-propylenediamine hydrochloride [16e]”, in data set [1], the “% Inhibition of PRMT1 (at 10 μM)” value was −4%.

For “N-Guanidino-N’-(1-(4-isopropoxyphenyl)-1H-tetrazol-5-yl-methyl)-N’-methyl-ethylenediamine hydrochloride [compound 20]”, the “% Inhibition of PRMT1 (at 10 μM)” value in data set [1] was −7%.

As to `CNCCCN(C)Cc1nnnn1-c1cccc(OC(F)(F)F)c1` [10e, N,N’-Dimethyl-N’-(1-(3-trifluoromethoxyphenyl)-1H-tetrazol-5-yl-methyl)-1,3-propylenediamine hydrochloride], the inhibition at 10 µM in data set [1] was -12%.

Regarding `CNCCN(C)Cc1nnnn1-c1ccc(OC(F)(F)F)cc1.Cl` [9f, N,N’-Dimethyl-N’-(1-(4-trifluoromethoxyphenyl)-1H-tetrazol-5-yl-methyl)ethylenediamine hydrochloride], the melting point lay within 194.3 to 195.2 °C. Further, the concentration for half-maximal inhibition (IC50) in data set [2] is greater than 100 µM.

Consider `CNCCCN(C)Cc1nnnn1-c1ccc(OC(C)C)cc1` [10a, N,N’-Dimethyl-N’-(1-(4-isopropoxyphenyl)-1H-tetrazol-5-yl-methyl)-1,3-propylenediamine hydrochloride], for which the inhibition at 10 µM in data set [1] was determined as 23%.

In the case of `CC(C)Oc1ccc(-n2nnnc2CN(C)CCCN)cc1` [18b, N-(1-(4-Isopropoxyphenyl)-1H-tetrazol-5-yl-methyl)-N-methyl-1,3-propylenediamine hydrochloride], in data set [1], the inhibition at 10 µM was 15%.

Turning to `CC(C)Oc1ccc(-n2nnnc2CNCCN)cc1` [18d, N-(1-(4-Isopropoxyphenyl)-1H-tetrazol-5-yl-methyl)-ethylenediaminehydrochloride], the inhibition at 10 µM in data set [1] was 18%.

On to “N,N’-Dimethyl-N’-(1-(3-methylsulfonylphenyl)-1H-tetrazol-5-yl-methyl)ethylenediamine hydrochloride [16b]”, for which the “% Inhibition of PRMT1 (at 10 μM)” value in data set [1] is on record as 13%.

`CNCCNCc1nnnn1-c1ccc(OC(C)C)cc1.Cl` [18c, N-Methyl-N’-(1-(4-isopropoxyphenyl)-1H-tetrazol-5-yl-methyl)-ethylenediamine hydrochloride] registered a melting point of 179.7 to 180.7 °C. The inhibition at 10 µM in data set [1] is 10%.

The compound `CNCCN(C)Cc1nnnn1-c1ccc(OCC(F)(F)F)cc1.Cl` [16c, N,N’-Dimethyl-N’-(1-(4-(2,2,2-trifluoroethoxy)phenyl)-1H-tetrazol-5-yl-methyl)ethylenediamine hydrochloride] registered a melting point of 188.7 to 190 °C. Further, the IC50 in data set [2] was greater than 100 µM.

Regarding `CC(C)Oc1ccc(-n2nnnc2CNCCN)cc1` (as salt: hydrochloride) [18d, N-(1-(4-Isopropoxyphenyl)-1H-tetrazol-5-yl-methyl)-ethylenediaminehydrochloride], the melting point lay in the range of 183.1 to 183.9 °C.

In turn, `CC(C)Oc1ccc(-n2nnnc2CN(C)CCN)cc1.Cl` [18a, N-(1-(4-Isopropoxyphenyl)-1H-tetrazol-5-yl-methyl)-N-methyl-ethylenediamine hydrochloride] had a melting point of 186.5 to 187.7 °C. In addition, in data set [1], the IC50 stood at 10 µM and the inhibition at 10 µM is 50%. The IC50 in data set [2] was greater than 100 µM.

`CC(C)Oc1ccc(-n2nnnc2CN2CCN(CCN)CC2)cc1` [18e, N-aminoethyl-N’-(1-(4-isopropoxyphenyl)-1H-tetrazol-5-yl-methyl)-piperazinehydrochloride]: the IC50 in data set [2] is greater than 100 µM.

For `CNCCN(C)Cc1nnnn1-c1cccc(OC(F)(F)F)c1.Cl` [9e, N,N’-Dimethyl-N’-(1-(3-trifluoromethoxyphenyl)-1H-tetrazol-5-yl-methyl)ethylenediamine hydrochloride], the melting point lay within 185.6 to 186.4 °C. Further, in data set [1], the inhibition at 10 µM was -17%.

As for `CNCCCN(C)Cc1nnnn1-c1cccc(OC(C)C)c1` [10b, N,N’-Dimethyl-N’-(1-(3-isopropoxyphenyl)-1H-tetrazol-5-yl-methyl)-1,3-propylenediamine hydrochloride], the inhibition at 10 µM in data set [1] is 0%.

The compound `CNCCCN(C)Cc1nnnn1-c1ccc(OC)cc1.Cl` [10c, N,N’-Dimethyl-N’-(1-(4-methoxyphenyl)-1H-tetrazol-5-yl-methyl)-1,3-propylenediamine hydrochloride] showed a melting point of 188.2 to 190.1 °C. In addition, the inhibition at 10 µM in data set [1] was -6%.

In the case of `CC(C)Oc1ccc(-n2nnnc2CN2CCN(CCN)CC2)cc1` (as salt: hydrochloride) [18e, N-aminoethyl-N’-(1-(4-isopropoxyphenyl)-1H-tetrazol-5-yl-methyl)-piperazinehydrochloride], the melting point was in the range of 183.2 to 183.9 °C.

Take `CNCCN(C)Cc1nnnn1-c1cccc(OCC(F)(F)F)c1` [16d, N,N’-Dimethyl-N’-(1-(3-(2,2,2-trifluoroethoxy)phenyl)-1H-tetrazol-5-ylmethyl)ethylenediamine hydrochloride]: the inhibition at 10 µM in data set [1] was 3%.

On to `CNCCCN(C)Cc1nnnn1-c1cccc(OC)c1` [10d, N,N’-Dimethyl-N’-(1-(3-methoxyphenyl)-1H-tetrazol-5-yl-methyl)-1,3-propylenediamine hydrochloride], for which the inhibition at 10 µM in data set [1] is -14%.

`CNCCN(C)Cc1nnnn1-c1cccc(OC(C)C)c1` [9b, N,N’-Dimethyl-N’-(1-(3-isopropoxyphenyl)-1H-tetrazol-5-yl-methyl)ethylenediamine hydrochloride]: in data set [1], the inhibition at 10 µM came to 0%.

Regarding “N,N’-Dimethyl-N’-(1-(4-methylsulfonylphenyl)-1H-tetrazol-5-yl-methyl)ethylenediamine hydrochloride [16a]”, the “% Inhibition of PRMT1 (at 10 μM)” value in data set [1] is on record as 23%.
